Activity calls are given as the source filed them. No cut-off for these calls is given here.
Key:
[1] = Cytotoxicity against mouse RAW264.7 cells assessed as cell survival rate at 100 uM incubated for 24 hrs by MTT assay; format: toxicity, cell-based; settings: read-out: Activity
RAW264.7 [2] = test: Anti inflammatory activity in LPS-induced mouse RAW264.7 cells assessed as inhibition of NO production at 80 uM preincubated with LPS for 4 hrs followed by compound addition and measured after 18 hrs by griess reagent based assay; format: functional; set-up: scale not given: the % may be the effect or the level left
RAW264.7 [3] = test: Anti inflammatory activity in LPS-induced mouse RAW264.7 cells assessed as inhibition of NO production preincubated with LPS for 4 hrs followed by compound addition and measured after 18 hrs by griess reagent based assay; format: functional, cell-based; settings: for Activity: dose 5-80 µM
Mus musculus = test: Antiinflammatory activity against xylene-induced ear edema mouse model assessed as swelling rate at 10 mg/kg, iv measured after 30 mins; format: functional; settings: 0.5 h
RAW264.7 [4] = test: Anti inflammatory activity in LPS-induced mouse RAW264.7 cells assessed as reduction in iNOS expression at 5 to 80 uM measured for 24 hrs by Western blot analysis; format: functional, cell-based; settings: dose 5-80 µM
RAW264.7 [5] = test: Cytotoxicity against mouse RAW264.7 cells assessed as reduction in cell viability at 1 to 40 uM incubated for 24 hrs by MTT assay; format: toxicity, cell-based; settings: raw264.7, 24 h, dose 1-40 µM

**Q.** Which viability at 24 h, 100 µM [1] does the source give for `Cc1ccc(S(=O)(=O)N2C(=O)[C@H](c3cccc(Br)c3)[C@H]3c4cccc(Br)c4C=CN32)cc1` here?
**A.** 81.7%

**Q.** And the Activity (RAW264.7 [2])?
**A.** 72.86%

**Q.** And the Activity (RAW264.7 [3])?
**A.** Dose-Dependent Effect

**Q.** What does the source list for `Cc1ccc(S(=O)(=O)N2C(=O)[C@H](c3ccc(F)cc3)[C@H]3c4ccccc4C=CN32)cc1`?
**A.** viability at 24 h, 100 µM [1]: 91.7%; Activity (RAW264.7 [2]): 73.46%; Activity (RAW264.7 [3]): Dose-Dependent Effect; Activity (Mus musculus): 64.4%

**Q.** What does the source list for `Cc1ccc(S(=O)(=O)N2C(=O)[C@H](c3ccc(Br)cc3)[C@H]3c4cccc(Br)c4C=CN32)cc1`?
**A.** viability at 24 h, 100 µM [1]: 92.9%; Activity (RAW264.7 [4]): Active; Activity (RAW264.7 [2]): 91.61%; Activity (RAW264.7 [5]): 90%; IC50 (RAW264.7 [3]): 20.8 µM; Activity (RAW264.7 [3]): Dose-Dependent Effect

**Q.** Which viability at 24 h, 100 µM [1] does the source give for `COc1ccc([C@H]2C(=O)N(S(=O)(=O)c3ccc(C)cc3)N3C=Cc4ccccc4[C@H]23)cc1` here?
**A.** 87%

**Q.** And the Activity (RAW264.7 [2])?
**A.** 77.09%

**Q.** What about the IC50 (RAW264.7 [3]) of the same molecule?
**A.** 47.8 µM

**Q.** What about the Activity (RAW264.7 [3]) of the same molecule?
**A.** Dose-Dependent Effect

**Q.** Which viability at 24 h, 100 µM [1] does the source give for `Cc1ccc(S(=O)(=O)N2C(=O)[C@H](c3ccccc3F)[C@H]3c4cccc(Br)c4C=CN32)cc1` here?
**A.** 87.7%

**Q.** What about the Activity (RAW264.7 [2]) of the same molecule?
**A.** 92.84%

**Q.** What about the Activity (RAW264.7 [5]) of the same molecule?
**A.** 90%

**Q.** And the Activity (RAW264.7 [3])?
**A.** Dose-Dependent Effect

**Q.** What does the source list for `Cc1ccc(S(=O)(=O)N2C(=O)[C@H](c3cccc(F)c3)[C@H]3c4cccc(Br)c4C=CN32)cc1`?
**A.** IC50 (RAW264.7 [3]): 33.8 µM; Activity (RAW264.7 [3]): Dose-Dependent Effect

**Q.** For `Cc1ccc(-c2cc(C(F)(F)F)nn2-c2ccc(S(N)(=O)=O)cc2)cc1` [CELECOXIB], which Activity (Mus musculus) is on record?
**A.** 70.05%

**Q.** For `Cc1ccc(S(=O)(=O)N2C(=O)[C@H](c3ccccc3)[C@H]3c4cccc(Br)c4C=CN32)cc1`, which viability at 24 h, 100 µM [1] is on record?
**A.** 92.3%

**Q.** What about the Activity (RAW264.7 [2]) of the same molecule?
**A.** 90.52%

**Q.** What about the Activity (RAW264.7 [5]) of the same molecule?
**A.** 90%

**Q.** And the IC50 (RAW264.7 [3])?
**A.** 47.8 µM

**Q.** What about the Activity (RAW264.7 [3]) of the same molecule?
**A.** Dose-Dependent Effect

**Q.** Which results are given for `COc1ccc([C@H]2C(=O)N(S(=O)(=O)c3ccc(C)cc3)N3C=Cc4c(Br)cccc4[C@H]23)cc1`?
**A.** viability at 24 h, 100 µM [1]: 91.7%; Activity (RAW264.7 [2]): 84.9%; IC50 (RAW264.7 [3]): 26.7 µM; Activity (RAW264.7 [3]): Dose-Dependent Effect
